The source of these data is patent publication US20100099712A1, “SUBSTITUTED PYRAZOLINE COMPOUNDS WITH ACAT INHIBITION ACTIVITY” (LABORATORIOS DEL DR. ESTEVE, S.A., priority 2007, published 2010).

Where two headings read alike, the source gives them in different places.

Experiment [1] addresses T1, ACAT 1 (Acyl CoA-Cholesterol Acyltransferase 1) (Homo sapiens, UniProt P35610).
T1 construct: Cells were collected, homogenized and microsomal membranes prepared; endogenous in cells; host or cells: U937 human monocyte cell line differentiated to macrophages with PMA; microsomal membranes
T1 sequence (P35610 1-550): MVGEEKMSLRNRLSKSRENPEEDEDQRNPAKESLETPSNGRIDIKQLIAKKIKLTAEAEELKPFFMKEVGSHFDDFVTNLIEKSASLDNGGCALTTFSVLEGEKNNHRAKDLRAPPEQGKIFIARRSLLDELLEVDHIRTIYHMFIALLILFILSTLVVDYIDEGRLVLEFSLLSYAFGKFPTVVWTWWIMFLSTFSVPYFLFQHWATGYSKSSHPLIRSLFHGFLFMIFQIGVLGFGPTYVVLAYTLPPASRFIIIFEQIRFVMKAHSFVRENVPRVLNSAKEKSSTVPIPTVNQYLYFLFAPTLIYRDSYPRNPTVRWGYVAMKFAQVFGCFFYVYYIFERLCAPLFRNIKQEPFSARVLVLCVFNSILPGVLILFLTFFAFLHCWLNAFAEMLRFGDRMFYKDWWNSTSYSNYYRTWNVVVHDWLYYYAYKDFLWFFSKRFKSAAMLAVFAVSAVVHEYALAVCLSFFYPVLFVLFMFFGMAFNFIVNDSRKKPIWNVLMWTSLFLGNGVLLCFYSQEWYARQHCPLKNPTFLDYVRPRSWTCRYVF
Nature of the experiment: In-vitro determination of inhibition of ACAT 1 (microsomal membranes of U937 cells differentiated to macrophages, [14C]-Palmitoyl CoA). The experiment is classed as biochemical. The note with it: for inhibition at 30 µM: 3 × 10^−5 M; for inhibition at 30 µM / inhibition at 3 µM / inhibition at 100 µM / inhibition at 10 µM / inhibition at 1 µM: read-out: ACAT 1 Inhibition (%) at various concentration of example; for inhibition at 3 µM: 3 × 10^−6 M; for inhibition at 100 µM: 10^−4 M; for inhibition at 10 µM: 10^−5 M; for inhibition at 1 µM: 10^−6 M; for IC50: U937 macrophage microsomes. The procedure:
I. In-vitro Determination of Inhibition of ACAT 1 (Acyl CoA-Cholesterol Acyltransferase 1)
The in-vitro determination of the inhibition of the enzyme ACAT 1 by the compounds of the invention is carried out in principle as described:
Human histiocytic monocyte cell line, U937 was differentiated to macrophages with Phorbol 12-myristate 13-acetate at a final concentration of 30 ng/mL for 72 hr. Cells were collected, homogenized and microsomal membranes prepared. Enzyme inhibition experiments were performed in the presence of 20 μM [^14]-Palmitoyl CoA as substrate. The vehicle used was 1% DMSO. Compounds to be tested were present at various concentrations and the incubation buffer used was 0.2M KH2PO4, 1 mM EDTA, 0.15% BSA, pH 7.4. After a 15 minutes preincubation period at 37° C. an incubation period of 1 hour at 37° C. followed. Quantification of [^14C]Cholesterol ester was done by column chromatography.

For experiment [2], the target named is T2, ACAT 2 (Acyl CoA-Cholesterol Acyltransferase 2) (Rattus norvegicus, UniProt Q7TQM4).
T2 construct: Briefly hepatic microsomes were prepared from the Wistar rats; from tissue; host or cells: liver (hepatic microsomes) of Wistar rats
T2 sequence (Q7TQM4 1-524): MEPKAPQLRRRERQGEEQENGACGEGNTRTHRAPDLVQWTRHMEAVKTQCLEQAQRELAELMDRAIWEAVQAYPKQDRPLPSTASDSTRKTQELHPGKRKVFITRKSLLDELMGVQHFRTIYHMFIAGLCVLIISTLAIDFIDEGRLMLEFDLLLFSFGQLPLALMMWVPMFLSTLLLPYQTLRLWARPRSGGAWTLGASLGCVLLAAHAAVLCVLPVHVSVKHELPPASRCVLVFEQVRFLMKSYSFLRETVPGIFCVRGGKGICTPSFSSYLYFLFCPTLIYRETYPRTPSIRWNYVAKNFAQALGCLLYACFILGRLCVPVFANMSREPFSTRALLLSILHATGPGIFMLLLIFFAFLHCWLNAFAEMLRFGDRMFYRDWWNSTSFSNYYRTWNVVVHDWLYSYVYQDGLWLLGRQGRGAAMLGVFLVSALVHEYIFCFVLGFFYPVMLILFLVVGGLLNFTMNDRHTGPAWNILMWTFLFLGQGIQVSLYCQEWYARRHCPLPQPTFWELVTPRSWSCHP
Nature of the experiment: In-vitro determination of inhibition of ACAT 2 (hepatic microsomes, [14C]-Palmitoyl CoA). The experiment is classed as biochemical, Wistar rats. The procedure: II. In-vitro Determination of Inhibition of ACAT 2 (Acyl CoA-Cholesterol Acyltransferase 2)
The in-vitro determination of the inhibition of the enzyme ACAT 2 by the compounds of the invention is carried out in principle as described in the publication of Largis EE, Wang CH, DeVries VG and Schaffer SA (1989), “A Novel inhibitor of ACAT-catalyzed cholesterol esterification and cholesterol absorption”, J. Lipid Res. 30, 681-689, (1989), whereby hepatic microsomes are used. The radio-substrate used is [^14C]-Palmitoyl CoA. The respective parts of the description are hereby incorporated by reference and forms part of the present disclosure.
Briefly hepatic microsomes were prepared from the Wistar rats. Enzyme inhibition experiments were performed in presence of 18 μM [^14C]-Palmitoyl CoA as substrate. The vehicle used was 1% DMSO. Compounds to be tested were present at various concentrations and the incubation buffer used was 0.2 M Phosphate buffer, pH 7.4 at 25° C. After a 15 minutes preincubation period at 37° C. an incubation period of 10 minutes at 37° C. followed. Quantification of [^14C]Cholesterol ester was done by column chromatography.

Experiment [3] has as its target T2, ACAT 2 (Acyl CoA-Cholesterol Acyltransferase 2). The note with it: reported value; read-out: ACAT 2 reported IC50 of reference compound; cited from earlier work.
[4] abbreviates: 3 × 10^−6 M, first ACAT 2 table, read-out: ACAT 2 Inhibition (%) at various concentration of example.
Where [5] appears, read: 3 × 10^−6 M, second ACAT 2 table, column 4, read-out: ACAT 2 Inhibition (%) at various concentration of example.
[6] abbreviates: 3 × 10^−7 M, first ACAT 2 table, read-out: ACAT 2 Inhibition (%) at various concentration of example.
Where [7] appears, read: 10^−5 M, first ACAT 2 table, read-out: ACAT 2 Inhibition (%) at various concentration of example.
Setting [8] is: 10^−5 M, second ACAT 2 table, column 3, read-out: ACAT 2 Inhibition (%) at various concentration of example.
Setting [9] is: 10^−6 M, first ACAT 2 table, read-out: ACAT 2 Inhibition (%) at various concentration of example.
[10] abbreviates: second ACAT 2 table, value marked * estimated from 2 different experiments.

Take `C[C@@H]1[C@@H](c2ccccc2)C(C(=O)NN2CCCCC2)=NN1c1ccc(Cl)cc1Cl` (racemic) [Example 1, 1-(2,4-Dichlorophenyl)-5-methyl-4-phenyl-4,5-dihydro-1H-pyrazole-3-carboxylic acid piperidin-1-ylamide]: the inhibition at 30 µM in experiment [1] was found to be 72%; in experiment [2] (3 × 10^−5 M, second ACAT 2 table, read-out: ACAT 2 Inhibition (%) at various concentration of example), 97%. For the same compound, the inhibition at 3 µM in experiment [1] turned out to be 38%; in experiment [2] (setting [4]) it was 70%; in experiment [2] (setting [5]), 74%. In addition, the inhibition at 100 µM turned out to be 55% in experiment [1] and 101% in experiment [2] (10^−4 M, second ACAT 2 table, read-out: ACAT 2 Inhibition (%) at various concentration of example). Moreover, the inhibition at 10 µM worked out at 65% in experiment [1], 94% in experiment [2] (setting [7]) and 93% in experiment [2] (setting [8]). Moreover, the inhibition at 1 µM in experiment [1] amounted to 14%; in experiment [2] (setting [9]) it was 44%. In addition, the IC50 is 9.66 µM in experiment [1], 1.28 µM in experiment [2] (first ACAT 2 table) and below 3 µM in experiment [2] (setting [10]). Also, the inhibition at 0.3 µM in experiment [2] (setting [6]) was determined as 19%. Moreover, the inhibition at 0.1 µM in experiment [2] (10^−7 M, first ACAT 2 table, read-out: ACAT 2 Inhibition (%) at various concentration of example) was -3%.
For the compound `C[C@@H]1[C@@H](c2ccccc2)C(C(=O)NN2CCCCC2)=NN1c1ccc(Cl)cc1Cl.Cl` (racemic) [Example 2, 1-(2,4-Dichloro-phenyl)-5-methyl-4-phenyl-4,5-dihydro-1H-pyrazole-3-carboxylic acid piperidin-1-ylamide; Hydrochloride], the “ACAT 2 Inhibition (%) at various concentration of example” value in experiment [2] (3 × 10^−5 M, second ACAT 2 table) is 96%; in experiment [2] (3 × 10^−6 M, first ACAT 2 table), 70%; in experiment [2] (3 × 10^−7 M, first ACAT 2 table), 17%; in experiment [2] (10^−4 M, second ACAT 2 table), 100%; in experiment [2] (10^−5 M, first ACAT 2 table), 90%; in experiment [2] (10^−6 M, first ACAT 2 table) it was 39%. Besides, the “ACAT 2 Inhibition (%) at various concentration of example” value in experiment [2] (10^−7 M, first ACAT 2 table) came out at 4%. Also, the IC50 in experiment [2] (first ACAT 2 table) amounted to 1.42 µM.
For the compound `CC1C(c2ccccc2)C(C(=O)O)=NN1c1ccc(Cl)cc1Cl` (stereo not shown) [Example 3, 1-(2,4-Dichloro-phenyl)-5-methyl-4-phenyl-4,5-dihydro-1H-pyrazole-3-carboxylic acid], the inhibition at 30 µM in experiment [1] turned out to be 74%; in experiment [2] (3 × 10^−5 M, first ACAT 2 table, read-out: ACAT 2 Inhibition (%) at various concentration of example), 92%. Further, the inhibition at 3 µM worked out at 50% in experiment [1]; 75% in experiment [2] (setting [4]); 71% in experiment [2] (setting [5]); 40% in experiment [2] (3 × 10^−6 M, second ACAT 2 table, repeated head, column 6, read-out: ACAT 2 Inhibition (%) at various concentration of example). In addition, the inhibition at 100 µM in experiment [1] was determined as 86%. Moreover, the inhibition at 10 µM stood at 64% in experiment [1]; 88% in experiment [2] (setting [7]); 86% in experiment [2] (setting [8]); 65% in experiment [2] (10^−5 M, second ACAT 2 table, repeated head, column 5, read-out: ACAT 2 Inhibition (%) at various concentration of example). Moreover, the figures for the inhibition at 1 µM in experiment [1] and in experiment [2] (setting [9]) were 17% and 56%, respectively. Further, the results for the IC50 in experiment [1], in experiment [2] (first ACAT 2 table) and in experiment [2] (setting [10]) were 4.84 µM, 0.82 µM and 2 µM, respectively. Also, the inhibition at 0.3 µM in experiment [2] (setting [6]) came to 29%.
In the case of `CC[C@H](C)C(=O)O[C@H]1C[C@@H](C)C=C2C=C[C@H](C)[C@H](CC[C@@H]3C[C@@H](O)CC(=O)O3)[C@H]21` [Lovastatin, reference compound], the IC50 in experiment [3] is 29 µM; in experiment [1], 9.6 µM; in experiment [2] (first ACAT 2 table) it was 22.7 µM; in experiment [2] (setting [10]), 12.5 µM.

Broadly, the IC50 is the concentration that gives 50% inhibition.
